Results: article PMC10650850, “Discovery, Structure–Activity Relationship and In Vitro Anticancer Activity of Small-Molecule Inhibitors of the Protein–Protein Interactions between AF9/ENL and AF4 or DOT1L” (Cancers, 2023)
“Also recorded” adds a separate entry of the source. Structures can show the parent of a compound that is named as a salt.

Columns and labels:
AF9-DOT1L interaction [1] = target: T1, AF9-DOT1L interaction (Homo sapiens, UniProt P42568); assay: AlphaLisa assay, AF9-DOT1L interaction; assay type: binding; conditions: for IC50: read-out: IC50 (μM) against the AF9-DOT1L interaction
T1 construct: human AF9 AHD domain (475–568); made in house; host or cells: E. coli BL21(DE3)
T1 sequence (P42568 475-568): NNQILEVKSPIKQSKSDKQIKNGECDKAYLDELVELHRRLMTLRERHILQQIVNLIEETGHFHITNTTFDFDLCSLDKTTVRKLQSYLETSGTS
Source text: An AlphaLisa assay we previously developed was used for compound screening for inhibitors of the AF9-DOT1L interaction. The PPI takes the DOT1L-peptide coated donor beads and AF9 AHD coated acceptor beads together. The donor beads are illuminated with a laser beam (680 nm) to generate singlet oxygen radicals, which activate the adjacent acceptor beads to produce luminescence at 615 nm. When a compound can disrupt such PPI and separate the donor and acceptor beads, the highly unstable radicals are rapidly quenched by water without generating luminescence.
(§1) The cDNA for the human AF9 AHD domain (475–568) and ENL AHD domain (489–559) was synthesized (by Genscript, Piscataway, NJ, USA) and inserted into the pMAL c5X expression plasmid. The DOT1L peptide (Biotin-AHX-[…]) and AF4 peptide (Biotin-AHX-[…]) for the Alpha assay were purchased from Genscript.
(§2) Alpha assays were developed in our previous publication, using a Perkin-Elmer AlphaLisa anti-MBP kit, which contains streptavidin donor beads and anti-MBP acceptor beads. Briefly, the assay was performed using a MBP-protein (5 nM), a biotinylated peptide (40 nM), and increasing concentrations of a compound in 25 µL buffer (PBS with 0.5% BSA, pH 7.5) in 384-well plates according to the manufacturer’s protocol and measured with a Tecan SPARK microplate reader. Data were imported into Prism (version 5.0), and IC50 values from 3 independent experiments with standard deviation were obtained by using a standard dose-response curve fitting.

AF9-AF4 = target: T2, AF9-AF4 (Homo sapiens, UniProt P42568); assay: AlphaLisa assay, AF9-AF4 interaction; assay type: binding; conditions: AF9 AHD, AF4 peptide
T2 construct: human AF9 AHD domain (475–568); made in house; host or cells: E. coli BL21(DE3)
T2 sequence (P42568 475-568): T1 sequence (P42568 475-568)
Description: (§3) Transcription cofactor AF4, which is the most frequent (~35%) fusion protein in MLL1-r leukemia, is another binding partner of AF9/ENL [35, 36, 37]. The AF9/ENL-AF4 interactions are essential for the formation of SEC, which causes aberrant gene expression in MLL-r leukemia and other AMLs. Using our previously developed AlphaLisa assays, selected compounds were tested for their ability to inhibit the PPIs between AF9 or ENL and AF4.
as §1, §2

ENL-AF4 = target: T3, ENL-AF4 (Homo sapiens, UniProt Q03111); assay: AlphaLisa assay, ENL-AF4 interaction; assay type: binding; conditions: ENL AHD, AF4 peptide
T3 construct: ENL AHD domain (489–559); made in house; host or cells: E. coli BL21(DE3)
T3 sequence (Q03111 489-559): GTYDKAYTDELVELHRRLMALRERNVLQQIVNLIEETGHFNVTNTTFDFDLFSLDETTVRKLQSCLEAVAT
Description: as §3, §1, §2

MV4;11 = assay: Antiproliferation assay (XTT), MV4;11; assay type: cell-based; conditions: Homo sapiens, MV4-11, 168 h, 7 days incubation, read-out: Antitumor activity EC50, MV4;11;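 also: EC50 values in Micromolar not Nanomolar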
Description: (§4) The antitumor activity of selected compounds was evaluated against the proliferation of a panel of MLL-r leukemia and other cancer cells. MV4;11 and Molm-13 leukemia cells contain MLL-AF4 and MLL-AF9 fusion oncogenes, respectively. NB4 and HL60 are AML cells without MLL translocation. Hela (cervical cancer) is a solid tumor cell line. […] The anti-proliferation activity of these compounds against other AML cells (i.e., NB4 and HL60) might be due to their inhibition of SEC-mediated gene expression (e.g., Myc), as observed in our previous studies.
(§5) Proliferation inhibition assays were performed using an XTT assay kit (Biotium, Fremont, CA, USA) following our previous methods. The antiproliferation EC50 values were determined using Prism 5 and the reported results were the mean values of at least three independent experiments. The incubation time for all compounds was 7 days.

Molm13 = assay: Antiproliferation assay (XTT), Molm-13; assay type: cell-based; conditions: Homo sapiens, MOLM-13, 168 h, 7 days incubation, read-out: Antitumor activity EC50, Molm13;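 also: EC50 values in Micromolar not Nanomolar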
Description: as §4, §5

NB4 = assay: Antiproliferation assay (XTT), NB4; assay type: cell-based; conditions: Homo sapiens, NB-4, 168 h, 7 days incubation, read-out: Antitumor activity EC50, NB4;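 also: EC50 values in Micromolar not Nanomolar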
Description: as §4, §5

HL60 = assay: Antiproliferation assay (XTT), HL60; assay type: cell-based; conditions: Homo sapiens, HL-60, 168 h, 7 days incubation, read-out: Antitumor activity EC50, HL60;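 also: EC50 values in Micromolar not Nanomolar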
Description: as §4, §5

Hela = assay: Antiproliferation assay (XTT), Hela; assay type: cell-based; conditions: 7 days incubation; for EC50: Homo sapiens, HeLa, 168 h, read-out: Antitumor activity EC50, Hela
Description: as §4, §5

[2] = test system: panel of MLL-r leukemia and other cancer cells; assay: Antiproliferation assay (XTT), panel of MLL-r leukemia and other cancer cells; assay type: cell-based; conditions: 7 days; for Inhibition of tumor cell proliferation (in words): MV4;11, Molm-13, NB4, HL60 and Hela cells; for EC50: 168 h, MV4;11, Molm-13, NB4 and HL60 cells, read-out: Antitumor activity EC50, span over MLL-r leukemia and AML cells
Description: as §4, §5

AF9-DOT1L interaction [3] = target: T1, AF9-DOT1L interaction; assay: Pull-down assay of AF9 AHD with DOT1L peptide-coated beads; assay type: binding; conditions: for remaining activity at 10 µM / remaining activity at 50 µM: Western blot, read-out: AF9 AHD % Control; for remaining activity at 10 µM: compound 10 μM; for remaining activity at 50 µM: compound 50 μM; for Effect on AF9 AHD bound to DOT1L peptide-coated beads (in words): up to 50 µM
Source text: A pull-down assay was used to confirm that the strong inhibitors could disrupt the AF9-DOT1L interaction. Streptavidin agarose beads coated with biotinylated DOT1L peptide were used to pull-down the protein AF9 AHD in the solution, followed by thorough washing, SDS-PAGE (sodium dodecyl sulfate-polyacrylamide gel electrophoresis) and Western blotting to visualize and quantitate the protein. […] This alternative, non-optical method confirmed that compounds 24 and 50 can inhibit the PPI between AF9 and DOT1L.
The pull-down assays were conducted following our previous method. Briefly, the biotinylated DOT1L peptide (0.25 mg/mL) was incubated with streptavidin agarose beads (20 μL) in PBS containing 0.1% Triton X-100 (400 µL) for 3h to yield, after washing, DOT1L-coated beads. MBP-tagged AF9 AHD (0.2 µM, 400 µL) was pre-incubated with a compound for 1 h before adding to the beads. After 6 h incubation at 4 °C, the beads were collected, thoroughly washed, and subjected to SDS-PAGE and analyzed by Western blot using an MBP antibody (#2396, Cell signaling, Danvers, MA, USA).

HoxA9, Meis1 and Myc = assay: RT-qPCR of MLL target genes in Molm-13 cells; assay type: cell-based; conditions: 1 and 5 µM, 4 days
Source text: The major function of the SEC is to promote transcription elongation for its bound genes. Because of the high affinity of the PPIs between AF9/ENL and AF4, onco-MLL (e.g., MLL-AF4 or MLL-AF9/-ENL) recruits SEC to MLL target genes, facilitates their expression, and eventually causes leukemia initiation. Next, we investigated whether selected inhibitors of these PPIs can inhibit the expression of HoxA9, Meis1 and Myc, which are MLL target genes and their high expression is characteristic of MLL-r leukemia. In addition, high expression of Myc is also observed in a broad range of AMLs and other cancers and is considered a driving factor for oncogenesis. To this end, RNAs from the control and compound-treated Molm-13 cells (harboring MLL-AF9) were extracted and subjected to quantitative PCR. […] RNA extraction and RT-qPCR were performed following our previous method. 10^5 cells/mL were incubated with a compound for 4 days and the RNA was extracted using an RNeasy mini kit (#74104, Qiagen, Germantown, MD, USA). 100–1000 ng of total RNA was reverse transcribed using iScript™ Reverse Transcription Supermix (Bio-Rad, Hercules, CA, USA), using the manufacturer’s protocol. Quantitative real-time PCR was carried out using Fast SYBR Green Master Mix (Applied Biosystems, Waltham, MA, USA) according to the manufacturer’s instructions. Measurements were performed in triplicate using GAPDH as the reference gene. Real-time PCR was performed using the Biosystems Step One Plus detection system. The following sequences of primers were used: […]

[4] = MBP-protein 5 nM, biotinylated peptide 40 nM, 3 independent experiments with standard deviation

Row | Structure (SMILES) | IC50 (AF9-DOT1L interaction [1]; [4]) [µM] | IC50 (AF9-AF4) [µM] | IC50 AF9-AF4 (AF9-AF4) | IC50 (ENL-AF4) [µM] | IC50 ENL-AF4 (ENL-AF4) | EC50 (MV4;11) [µM] | EC50 (Molm13) [µM] | EC50 (NB4) [µM] | EC50 (HL60) [µM] | EC50 (Hela) [µM] | Inhibition of tumor cell proliferation (in words) [2] | EC50 [2] [µM] | Antitumor activity EC50, Hela (Hela) | IC50 (μM) against the AF9-DOT1L interaction (AF9-DOT1L interaction [1]; [4]) | inhibition at 5 µM (AF9-DOT1L interaction [1]; compound at 5 μM, read-out: % Inhibition at 5 μM against the AF9-DOT1L interaction) [%] | remaining activity at 10 µM (AF9-DOT1L interaction [3]) [%] | remaining activity at 50 µM (AF9-DOT1L interaction [3]) [%] | Effect on AF9 AHD bound to DOT1L peptide-coated beads (in words) (AF9-DOT1L interaction [3]) | Expression of MLL target genes HoxA9, Meis1 and Myc (in words) (HoxA9, Meis1 and Myc)
1 | O=C(NCC1CCNCC1)c1cc2cc(-c3cn[nH]c3)ccc2[nH]1 [Compound 22] | > 30 | > 50 | did not inhibit | > 50 | did not inhibit | > 50 | > 50 | > 50 | > 50 | > 50 | None of these three compounds inhibited tumor cell proliferation | – | – | – | – | – | – | – | –
2 | O=C(NCC1CCNCC1)c1cc2ccc(-c3ccc(N4CCCC4)cc3)cc2s1 [Compound 25, 6-(4-(Pyrrolindin-1-yl)phenyl)-N-(piperidin-4-ylmethyl)-benzo[b]thiophene-2-carboxamide hydrochloride] | 5.3 ± 0.1 | 7.7 ± 0.9 | – | 7.9 ± 1.5 | – | 8.7 ± 0.9 | 9.4 ± 0.8 | 10 ± 0.5 | 26 ± 2.6 | 50 | – | 8.7 to 26 | – | – | – | – | – | – | –
3 | Cl.O=C(NCC1CCNCC1)c1coc2cc(-c3ccc(N4CCCCC4)cc3)ccc12 [Compound 57, 6-(4-(Piperidin-1-yl)phenyl)-N-(piperidin-4-ylmethyl)-benzofuran-3-carboxamide hydrochloride] | 7.2 ± 0.4 | – | – | – | – | 21 ± 1.2 | 13 ± 1.7 | 11 ± 0.4 | 9.7 ± 1.2 | 50 | – | 9.7 to 21 | did not affect the growth of Hela cells | – | – | – | – | – | –
4 | Cl.NC(=O)c1ccc(-c2ccc3cc(C(=O)NCC4CCNCC4)sc3c2)cc1 [Compound 37, 6-(4-(Carbamoyl)phenyl)-N-(piperidin-4-ylmethyl)-benzo[b]thiophene-2-carboxamide hydrochloride] | – | > 50 | did not inhibit | > 50 | did not inhibit | > 50 | > 50 | > 50 | > 50 | > 50 | None of these three compounds inhibited tumor cell proliferation | – | – | inactive | 0 | 54 | 44 | did not significantly affect the AF9 AHD levels; also recorded: did not significantly affect the binding | not and did not significantly affect the expression
5 | Cl.NCc1ccc(-c2ccc3cc(C(=O)NCC4CCNCC4)oc3c2)cc1 [Compound 72, 6-(4-(Aminomethyl)phenyl)-N-(piperidin-4-ylmethyl)-benzofuran-2-carboxamide hydrochloride] | > 30 | – | – | – | – | ~50 | > 50 | > 50 | > 50 | > 50 | None of these three compounds inhibited tumor cell proliferation | – | – | – | – | – | – | – | –
6 | O=C(NCC1CCNCC1)c1c[nH]c2cc(-c3ccc(N4CCCCC4)cc3)ccc12 [Compound 2, 6-(4-(Piperidin-1-yl)phenyl)-N-(piperidin-4-ylmethyl)-1H-indole-3-carboxamide hydrochloride] | 4.5 ± 0.01 | – | – | – | – | 33 ± 2.8 | 29 ± 2.5 | 32 ± 2 | 50 | > 50 | – | – | – | – | – | – | – | – | –
7 | O=C(NCC1CCNCC1)c1cc2cc(-c3ccc(N4CCCC4)cc3)ccc2[nH]1 [Compound 16] | 2.7 ± 0.2 | 1.9 ± 0.1 | – | 1.9 ± 0.3 | – | – | – | – | – | – | – | – | – | – | – | – | – | – | –
8 | O=C(NCC1CCNCC1)c1cc2cc(-c3ccc(N4CCCCC4)cc3)ccc2[nH]1 [Compound 15] | 3.6 ± 0.3 | – | – | – | – | 22 ± 2 | 10 ± 1.6 | > 50 | 50 | > 50 | – | – | – | – | – | – | – | – | –
9 | O=C(NCC1CCNCC1)c1c[nH]c2cc(-c3ccc(N4CCCC4)cc3)ccc12 [Compound 12, 6-(4-(Pyrrolidin-1-yl)phenyl)-N-(piperidin-4-ylmethyl)-1H-indole-3-carboxamide hydrochloride] | 2.9 ± 0.1 | – | – | – | – | 26 ± 1.8 | 50 | 50 | 50 | > 50 | – | – | – | – | – | – | – | – | –
10 | Cl.O=C(NCC1CCNCC1)c1cc2ccc(-c3ccc(N4CCCCC4)cc3)cc2s1 [Compound 24, 6-(4-(Piperidin-1-yl)phenyl)-N-(piperidin-4-ylmethyl)-benzo[b]thiophene-2-carboxamide hydrochloride] | 1.6 ± 0.2 | 2.1 ± 0.3 | – | 2.6 ± 0.3 | – | 9.6 ± 1.2 | 4.7 ± 0.3 | 5.3 ± 1.1 | 10 ± 1.8 | 50 | – | – | – | – | – | 62 | 4 | significantly reduced the amounts of AF9 AHD; also recorded: dose-dependently reduce AF9 AHD | inhibited expression; also recorded: able to reduce the expression
